Holding throughout (test): Cancer cell line profiling, Genomics of Drug Sensitivity Project
In one assay the test system is A431. The following applies: Homo sapiens, A-431, read-out: CD532 EC50 (uM).
Another assay relates to MKN1. The following applies: Homo sapiens, MKN-1, read-out: CD532 EC50 (uM).
A further assay concerns DOK. The following applies: read-out: CD532 EC50 (uM).
The next assay concerns JHH-1. Particulars: JHH1, read-out: CD532 EC50 (uM).
The next assay relates to GI-ME-N.
The subject of a further assay is KP-N-YS. Particulars: read-out: CD532 EC50 (uM).
A further assay concerns NB12. Particulars: read-out: CD532 EC50 (uM).
In another assay the test system is OVMIU. Particulars: read-out: CD532 EC50 (uM).

Each structure is given as a SMILES string. Like-named read-outs stand apart in the source and are kept apart here.

From US12551482B2, “Aurora kinase inhibitors” (The Regents of the University of California, priority 2013, dated 2026) come the findings set out here.

For orientation: EC50 means the midpoint of the concentration-response curve.

As for `O=C(Nc1ccc(Nc2nccc(Nc3cc(C4CCCC4)[nH]n3)n2)cc1)Nc1cccc(C(F)(F)F)c1` [CD532, 1-(4-((4-((5-cyclopentyl-1H-pyrazol-3-yl)amino)pyrimidin-2-yl)amino)phenyl)-3-(3-(trifluoromethyl)phenyl)urea], the EC50 in the assay on A431 is 0.364 µM; with MKN1 it was 0.86 µM; with DOK it was 0.512 µM; in the assay on JHH-1, 0.295 µM; with GI-ME-N (read-out: CD532 EC50 (uM), GI-ME-N cell line, Nervous System), 0.428 µM; in the assay with GI-ME-N (read-out: CD532 EC50, GI-ME-N cell line, Nervous System), 0.812 µM. In addition, the EC50 in the assay on KP-N-YS was 0.27 µM; in the assay on NB12, 0.293 µM; in the assay on OVMIU it was 0.869 µM.
